Test results: patent EP0496452A1, “Novel endothelin receptor antagonists isolated from microbispora” (MERCK & CO. INC., priority 1991, dated 1992)
*1 amine or outer side, *2 acyl side, *3 side chain or, on linkers, in order; H or OH if unused. Where a SMILES comes first, the peptide text is derived from it. Bridges are numbered along the chain shown (N, C = ends). [ ]: non-standard residue; d: D form. The star is where a group is joined. dPhg(3,5-diOH) = N[C@@H](C(=O)O)c1cc(O)cc(O)c1; X2 = O=C([C@@H](N[*:1])c1cc(O)cc(O)c1)[*:2]; d(aThr) = C[C@@H](O)[C@@H](N)C(=O)O; Pyrrole2CO = O=C(c1ccc[nH]1)*; X1 = O=C(c1ccc(Cl)[nH]1)*

Assays:
ET-A = target: T1, ET-A (Rattus norvegicus, UniProt P26684); experiment: 125I-ET-1 endothelin receptor binding assay, rat aorta membranes; details: 150 pM 125I-ET-1, 37° C
T1 construct: Membranes were prepared from rat hippocampus, and rat or cow aorta; from tissue; host or cells: rat aorta membranes
T1 sequence (P26684 21-426): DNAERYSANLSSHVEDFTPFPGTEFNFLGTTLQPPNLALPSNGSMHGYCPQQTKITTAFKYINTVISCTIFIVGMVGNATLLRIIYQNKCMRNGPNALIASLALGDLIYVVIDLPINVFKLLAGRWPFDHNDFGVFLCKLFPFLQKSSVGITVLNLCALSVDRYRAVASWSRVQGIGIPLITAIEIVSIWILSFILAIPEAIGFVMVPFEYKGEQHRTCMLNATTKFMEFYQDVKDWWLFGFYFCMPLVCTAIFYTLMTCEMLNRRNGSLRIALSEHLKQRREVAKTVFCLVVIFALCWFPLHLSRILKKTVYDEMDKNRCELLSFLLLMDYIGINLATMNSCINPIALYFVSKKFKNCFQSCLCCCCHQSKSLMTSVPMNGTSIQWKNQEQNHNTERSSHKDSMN
Description: (§1) The binding of cyclopeptides I, II and III to the endothelin receptor was determined in accordance with the assay described in detail immediately below. It is similar to the assay described in Ambar et al. (1989) Biochem. Biophys. Res. Commun. 158, 195-201; and Khoog et al. (1989) Febs Letters, 253, 199-202.
(§2) Endothelin-1 (ET-1) was purchased from Peptides International (Louisville, KY ). ¹²⁵I-ET-1 (2000 Ci/mMol) was purchased from Amersham (Arlington Heights, IL).
(§3) Membranes were prepared from rat hippocampus, and rat or cow aorta. Dissected tissue was homogenized twice for 30 seconds with a Brinkman Polytron [setting 10, Generator PTA 20 TS (Westbury, NY)] in ice cold 250 mM sucrose, 50 mM Tris-HCl pH 7.4 with 7 µg/ml pepstatin A and 0.5 µg/ml leupeptin. The crude particulate matter was removed by centrifugation at 750 x g for 10 min. The membranes were sedimented from the supernatant fraction by centrifugation at 48,000 g for 30 min. Membrane pellets were resuspended in the above buffer with protease inhibitors. Aliquots of these suspensions were stored at -70° C.
(§4) Binding studies with ¹²⁵I-ET-1 were conducted in 50 mM potassium phosphate pH 7.5 with 0.1% bovine serum albumin (BSA) using 12-well Shatron (Lier, Norway) cell harvester tube strips. ¹²⁵I-ET-1 concentrations were 25 pM for hippocampus, 150 pM for aorta. Samples were dissolved in dimethylsulfoxide (DMSO). Upon addition of the sample, the final DMSO concentration was 3%. Membranes were added last to start the binding reaction. The reaction mixture was incubated at 37° C for 30 or 60 minutes. Binding reactions were terminated using a Skatron cell harvester by filtration through glass fiber filter pads presoaked with 2% BSA. The samples on the pads were immediately washed with 150 mM NaCl 0.1% BSA. The pads were punched out and radioactivity was evaluated in a Beckman Gamma 5500 gamma counter (Fullerton, CA). Nonspecific binding was determined in the presence of 100 nM ET-1. The results of this binding assay are set out in the table of values below: TABLE VI

ET-B = target: T2, ET-B (Rattus norvegicus, UniProt P21451); experiment: 125I-ET-1 endothelin receptor binding assay, rat hippocampus membranes; details: 25 pM 125I-ET-1, 37° C
T2 construct: Membranes were prepared from rat hippocampus, and rat or cow aorta; from tissue; host or cells: rat hippocampus membranes
T2 sequence (P21451 27-442): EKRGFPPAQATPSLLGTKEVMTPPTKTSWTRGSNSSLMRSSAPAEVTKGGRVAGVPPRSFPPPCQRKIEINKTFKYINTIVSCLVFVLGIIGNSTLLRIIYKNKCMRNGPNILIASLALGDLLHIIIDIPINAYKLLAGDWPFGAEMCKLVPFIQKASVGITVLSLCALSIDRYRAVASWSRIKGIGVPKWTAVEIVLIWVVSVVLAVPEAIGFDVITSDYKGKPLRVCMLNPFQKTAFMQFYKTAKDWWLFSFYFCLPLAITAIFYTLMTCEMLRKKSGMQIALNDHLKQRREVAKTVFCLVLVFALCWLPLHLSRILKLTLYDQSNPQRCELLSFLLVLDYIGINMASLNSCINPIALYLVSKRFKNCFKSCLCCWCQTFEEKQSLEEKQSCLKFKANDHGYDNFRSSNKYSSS
Description: as §1, §2, §3, §4

[1] = Immunosuppressant activity (assay not described); details: may be attributable to assay differences

Row | SMILES | Ki (ET-A) | Ki (ET-B) | immunosuppressant activity [1]
1 | C[C@H]1NC(=O)[C@@H](Cc2ccccc2)NC(=O)[C@H](NC(=O)[C@H](Cc2ccccc2)NC(=O)c2ccc(Cl)[nH]2)[C@@H](C)OC(=O)[C@@H](c2cc(O)cc(O)c2)NC(=O)[C@@H](c2cc(O)cc(O)c2)NC1=O [Compound III] (X1-F[d(aThr)][dF][dA][dPhg(3,5-diOH)][dPhg(3,5-diOH)]; ester 2-C) | 200 nM | 500 nM | no significant immunosuppressant activity
2 | C[C@H]1NC(=O)[C@@H](Cc2ccccc2)NC(=O)[C@H](NC(=O)[C@H](Cc2ccccc2)NC(=O)c2ccc[nH]2)[C@@H](C)OC(=O)[C@@H](c2cc(O)cc(O)c2)NC(=O)[C@@H](c2cc(O)cc(O)c2)NC1=O [Compound I] (Pyrrole2CO-F[d(aThr)][dF][dA][dPhg(3,5-diOH)][dPhg(3,5-diOH)]; ester 2-C) | 100 nM | 200 nM | –
3 | C[C@H]1NC(=O)[C@@H](Cc2ccccc2)NC(=O)[C@H](NC(=O)[C@H](Cc2ccccc2)NC(=O)c2ccc(Cl)[nH]2)[C@@H](C)OC(=O)[C@H](c2cc(O)cc(O)c2)NC(=O)[C@@H](c2cc(O)cc(O)c2)NC1=O [Compound II] (X1-F[d(aThr)][dF][dA][dPhg(3,5-diOH)][X2]; ester 2-C) | 3000 nM | 3000 nM | no significant immunosuppressant activity
